# Test results as given in patent EP1479389B1, “Ready to use gemcitabine solutions” (STADA ARZNEIMITTEL AG, priority 2003, dated 2004).
# Columns and labels:
# Type in all cases: physicochemical
# [1] = Visible precipitation of aqueous gemcitabine solutions on storage (solubility, initial pH ca. 4,0); conditions: water, pH 4, water, 2-8°C storage, no solubility enhancers, read-out: Gehalt klarer partikelfreier Gemcitabinlösungen
# Method: Zur Bestimmung der Löslichkeit von Gemcitabin in wässrigen Lösungen (bei T = 25°C und T = 2-8°C, Anfangs-pH-Wert = 4,0) wurde Gemcitabinhydrochlorid in Wasser für Injektionszwecke bei 25°C gelöst (c(Gemcitabin) = 55,2 mg/ml entsprechend 62,8 mg Gemcitabinhydrochlorid pro ml Wasser sowie c(Gemcitabin) = 10,0mg/ml entsprechend 11,38 mg Gemcitabinhydrochlorid pro ml Wasser) und der pH-Wert mit q.s. 1 N Natronlauge / q.s. 1 N Salzsäure eingestellt.
# Aus dem so gewonnenen Ansatz wurden mit Wasser für Injektionszwecke verdünnte Lösungen hergestellt und potentiometrisch deren pH-Wert bestimmt. Die hergestellten Lösungen wurden jeweils als 5ml-Aliquote in mit Durchstechstopfen dicht verschlossenen Vials abgefüllt. Diese Proben wurden nach Lagerung bei 2-8°C bzw. bei 25°C auf sichtbare Auskristallisation des Wirkstoffs geprüft ("+" Niederschlag; "-" klar und partikelfrei) und ihr pH-Wert bestimmt. Tabelle 1: Niederschlagbildung in 25°C und 2-8°C-gelagerter Gemcitabinlösungen (Anfangs-pH ca. 4,0)
# [2] = pH-dependent visible crystallisation of concentrated gemcitabine solutions; conditions: c=52,7mg Gemcitabin/ml
# Method: Zur Bestimmung der tatsächlichen, pH-abhängigen Löslichkeit von Gemcitabin in wässrigen Lösungen wurden entsprechend Beispiel 1 konzentrierte Gemcitabin-Lösungen (c=52,7 mg Gemcitabin/ml entsprechend 60mg Gemcitabinhydrochlorid pro ml Wasser; 5 ml/Vial) hergestellt, deren pH-Wert mit q.s. 1 N Natronlauge auf pH-Werte von 2,0 bis 5,0 eingestellt wurde. Die so erhaltenen Lösungen wurden bei einer Lagertemperatur von 2-8°C gelagert.
# Tabelle 2: Stabilität von konzentrierten Gemcitabin-Lösungen vs. Auskristallisation des Wirkstoffs
# [3] = Temperature-dependent storage stability of gemcitabine solutions pH 4,0, content by HPLC; conditions: 10 mg/ml
# Method: Zur weiteren Bestimmung der Temperatur-Abhängigkeit der Stabilität von erfindungsgemäßen Gemcitabin-Lösungen mit einem pH-Wert von ca. 4,0, wurden wie zuvor beschrieben Lösungen, deren pH-Wert mit 1 N Natronlauge eingestellt wurde, mit einer Gemcitabin-Konzentration von 10 mg/ml (in Wasser für Injektionszwecke) hergestellt. Diese wurden über einen Zeitraum von 12 Monaten gelagert. In dieser Zeit wurde die Wirkstoffkonzentration in regelmäßigen Abständen mittels HPLC bestimmt. Tabelle 3: Temperatur-abhängige Stabilität von Gemcitabin-Lösungen (c(Gemcitabin) = 10 mg/ml entsprechend 11,39 mg Gemcitabinhydrochlorid pro ml Wasser, pH 4,0)
# [4] = Regressive extrapolation of the Table 6 storage stability data to 1-4 years; conditions: 10 mg/ml in aqueous solution, pH ca. 8; Lagertemperatur 25°C
# Method: Eine regressive Extrapolation der in Tabelle 6 angegebenen Daten ergab folgende in Tabelle 7 aufgeführte Lagerstabilitäten. Tabelle 7 : Stabilität von Gemcitabin-Lösungen mit pH = 8,0 bei 25°C, 40°C und 60°C bei einer Lagerzeit von 1-4 Jahren
# [5] = pH-dependent visible crystallisation of concentrated gemcitabine solutions; conditions: pH 5,0; 25°C; c=52,7 mg Gemcitabin/ml
smiles,measurement,setting,value
"Nc1ccn([C@@H]2O[C@H](CO)[C@@H](O)C2(F)F)c(=O)n1 [Gemcitabin, 2'-Deoxy-2',2'-difluorcytidin]",solubility,[1],~10000 µg/mL
same,Sichtbare Auskristallisation,"[2]; pH 2,0, nach 1 Tag (2-8°C)",+
same,Sichtbare Auskristallisation,"[2]; pH 2,0, nach 2 Tagen (2-8°C)",+
same,Sichtbare Auskristallisation,"[2]; pH 2,0, nach 3 Tagen (2-8°C)",+
same,Sichtbare Auskristallisation,"[2]; pH 2,0, nach 7 Tagen (2-8°C)",+
same,Sichtbare Auskristallisation,"[2]; pH 2,0, nach 14 Tagen (2-8°C)",+
same,Sichtbare Auskristallisation,"[2]; pH 2,5, nach 1 Tag (2-8°C)",-
same,Sichtbare Auskristallisation,"[2]; pH 2,5, nach 2 Tagen (2-8°C)",+
same,Sichtbare Auskristallisation,"[2]; pH 2,5, nach 3 Tagen (2-8°C)",+
same,Sichtbare Auskristallisation,"[2]; pH 2,5, nach 7 Tagen (2-8°C)",+
same,Sichtbare Auskristallisation,"[2]; pH 2,5, nach 14 Tagen (2-8°C)",+
same,Sichtbare Auskristallisation,"[2]; pH 3,0, nach 1 Tag (2-8°C)",-
same,Sichtbare Auskristallisation,"[2]; pH 3,0, nach 2 Tagen (2-8°C)",+
same,Sichtbare Auskristallisation,"[2]; pH 3,0, nach 3 Tagen (2-8°C)",+
same,Sichtbare Auskristallisation,"[2]; pH 3,0, nach 7 Tagen (2-8°C)",+
same,Sichtbare Auskristallisation,"[2]; pH 3,0, nach 14 Tagen (2-8°C)",+
same,Sichtbare Auskristallisation,"[2]; pH 3,5, nach 1 Tag (2-8°C)",-
same,Sichtbare Auskristallisation,"[2]; pH 3,5, nach 2 Tagen (2-8°C)",-
same,Sichtbare Auskristallisation,"[2]; pH 3,5, nach 3 Tagen (2-8°C)",-
same,Sichtbare Auskristallisation,"[2]; pH 3,5, nach 7 Tagen (2-8°C)",-
same,Sichtbare Auskristallisation,"[2]; pH 3,5, nach 14 Tagen (2-8°C)",-
same,Gehalt,"[3]; 5°C, 0 mon","100,0 rel.%"
same,Gehalt,"[3]; 5°C, 3 mon, 129600 min","99,7 rel.%"
same,Gehalt,"[3]; 5°C, 6 mon, 259200 min","99,4 rel.%"
same,Gehalt,"[3]; 5°C, 9 mon, 388800 min","99,2 rel.%"
same,Gehalt,"[3]; 5°C, 12 mon, 518400 min","99,0 rel.%"
same,Gehalt,"[3]; 15°C, 0 mon","100,0 rel.%"
same,Gehalt,"[3]; 15°C, 3 mon, 129600 min","99,6 rel.%"
same,Gehalt,"[3]; 15°C, 6 mon, 259200 min","99,2 rel.%"
same,Gehalt,"[3]; 15°C, 9 mon, 388800 min","98,8 rel.%"
same,Gehalt,"[3]; 15°C, 12 mon, 518400 min","98,3 rel.%"
same,Gehalt,"[3]; 25°C, 0 mon","100,0 rel.%"
same,Gehalt,"[3]; 25°C, 3 mon, 129600 min","97,1 rel.%"
same,Gehalt,"[3]; 25°C, 6 mon, 259200 min","94,1 rel.%"
same,"Dauer, über die die Lösungen stabil sind",[4],≥ 3 Jahren
same,Auskristallisation,[5],"spontane (pH 5,0; 25°C) Auskristallisation"
